Literature values in PubChem BioAssay AID1259409 (Chemical Carcinogenesis Research Information System (CCRIS), 2018).

Tested on: rodent chemically induced tumor inhibition, incidence and multiplicity
Assay: CCRIS tumor inhibitor studies
Details: Dose [Inhibitor]: 0, Route [Inhibitor]: ORAL

## COc1ccc2c(c1)c(CC(=O)O)c(C)n2C(=O)c1ccc(Cl)cc1
Carcinogen: N-BUTYL-N-(4-HYDROXYBUTYL)NITROSAMINE, 3817-11-6, 20 PPM IN DRINKING WATER FOR 40 WK BEGINNING POST CARCINOGEN TREATMENT (STUDY DURATION: 44 WK), Species: RAT, Strain/Sex: F344/MALE, Target Tissue: Type of Lesion: URINARY BLADDER: PAPILLOMA, Dose [Carcinogen]: 0.05% IN DRINKING WATER FOR 4 WK, Promoter: BUTYLATED HYDROXYANISOLE, 25013-16-5
  tumour outcome (control, treated, inhibition, significance): 14/15 (93%), 4/15 (27%), 71%, p<0.01
Carcinogen: N-BUTYL-N-(4-HYDROXYBUTYL)NITROSAMINE, 3817-11-6, 20 PPM IN DRINKING WATER FOR 40 WK BEGINNING POST CARCINOGEN TREATMENT (STUDY DURATION: 44 WK), Species: RAT, Strain/Sex: F344/MALE, Target Tissue: Type of Lesion: URINARY BLADDER: PAPILLOMA, Dose [Carcinogen]: 0.05% IN DRINKING WATER FOR 4 WK, Promoter: SODIUM L-ASCORBATE, 134-03-2
  tumour outcome (control, treated, inhibition, significance): 15/15 (100%), 9/15 (60%), 40%, p<0.01
Carcinogen: N-BUTYL-N-(4-HYDROXYBUTYL)NITROSAMINE, 3817-11-6, 20 PPM IN DRINKING WATER FOR 40 WK BEGINNING POST CARCINOGEN TREATMENT (STUDY DURATION: 44 WK), Species: RAT, Strain/Sex: F344/MALE, Target Tissue: Type of Lesion: URINARY BLADDER: TRANSITIONAL CELL CARCINOMA, Dose [Carcinogen]: 0.05% IN DRINKING WATER FOR 4 WK, Promoter: BUTYLATED HYDROXYANISOLE, 25013-16-5
  tumour outcome (control, treated, inhibition, significance): 10/15 (67%), 1/15 (7%), 90%, p<0.01
Carcinogen: N-BUTYL-N-(4-HYDROXYBUTYL)NITROSAMINE, 3817-11-6, 20 PPM IN DRINKING WATER FOR 40 WK BEGINNING POST CARCINOGEN TREATMENT (STUDY DURATION: 44 WK), Species: RAT, Strain/Sex: F344/MALE, Target Tissue: Type of Lesion: URINARY BLADDER: TRANSITIONAL CELL CARCINOMA, Dose [Carcinogen]: 0.05% IN DRINKING WATER FOR 4 WK, Promoter: SODIUM L-ASCORBATE, 134-03-2
  tumour outcome (control, treated, inhibition, significance): 15/15 (100%), 5/15 (33%), 67%, p<0.01
Carcinogen: N-BUTYL-N-(4-HYDROXYBUTYL)NITROSAMINE, 53609-64-6, 7.5 MG/KG OF DIET STARTING 1 WK PRIOR TO CARCINOGEN DOSE FROM 49 D OF AGE AND CONTINUING FOR DURATION OF STUDY (STUDY, Species: MOUSE, Strain/Sex: BDF/MALE, Target Tissue: Type of Lesion: BLADDER: CARCINOMA, Dose [Carcinogen]: 7.5 MG IN 0.1 ML OF ETHANOL:WATER (20:80) 1/WK FOR 8 WK, Promoter: NONE USED
  tumour outcome (control, treated, inhibition, significance): 14%, 4%, 71%, p<0.05
Carcinogen: N-BUTYL-N-(4-HYDROXYBUTYL)NITROSAMINE, 53609-64-6, 7.5 MG/KG OF DIET STARTING 1 WK PRIOR TO CARCINOGEN DOSE FROM 49 D OF AGE AND CONTINUING FOR DURATION OF STUDY (STUDY, Species: MOUSE, Strain/Sex: BDF/MALE, Target Tissue: Type of Lesion: BLADDER: PAPILLOMA, Dose [Carcinogen]: 7.5 MG IN 0.1 ML OF ETHANOL:WATER (20:80) 1/WK FOR 8 WK, Promoter: NONE USED
  tumour outcome (control, treated, inhibition, significance): 13%, 1%, 92%, p<0.01
Carcinogen: N-BUTYL-N-(4-HYDROXYBUTYL)NITROSAMINE, 53609-64-6, 15 MG/KG OF DIET STARTING 1 WK PRIOR TO CARCINOGEN DOSE AT 49 D OF AGE AND CONTINUING FOR DURATION OF STUDY (STUDY DU, Species: MOUSE, Strain/Sex: BDF/MALE, Target Tissue: Type of Lesion: BLADDER: CARCINOMA, Dose [Carcinogen]: 7.5 MG IN 0.1 ML OF ETHANOL:WATER (20:80) 1/WK FOR 8 WK, Promoter: NONE USED
  tumour outcome (control, treated, inhibition, significance): 14%, 0%, 100%, p<0.01
Carcinogen: N-BUTYL-N-(4-HYDROXYBUTYL)NITROSAMINE, 53609-64-6, 15 MG/KG OF DIET STARTING 1 WK PRIOR TO CARCINOGEN DOSE AT 49 D OF AGE AND CONTINUING FOR DURATION OF STUDY (STUDY DU, Species: MOUSE, Strain/Sex: BDF/MALE, Target Tissue: Type of Lesion: BLADDER: PAPILLOMA, Dose [Carcinogen]: 7.5 MG IN 0.1 ML OF ETHANOL:WATER (20:80) 1/WK FOR 8 WK, Promoter: NONE USED
  tumour outcome (control, treated, inhibition, significance): 13%, 0%, 100%, p<0.01
Carcinogen: N-ETHYL-N-NITROSOUREA, 759-73-9, 20 MG/L IN DRINKING WATER FOR 12 MO ADMINISTERED TO OFFSPRING OF CARCINOGEN-TREATED MOTHERS (STUDY DURATION: 12 MO), Species: RAT, Strain/Sex: ALBINO/MALE, FEMALE, Target Tissue: Type of Lesion: BRAIN: TUMOR, Dose [Carcinogen]: 75 MG/KG BW ADMINISTERED INTRAPERITONEALLY TO MOTHERS 21 D POST CONCEPTION, Promoter: NONE USED
  tumour outcome (control, treated, inhibition, significance): 36/42 (86%), 14/25 (56%), 35%, p<0.05
Carcinogen: N-ETHYL-N-NITROSOUREA, 759-73-9, 20 MG/L IN DRINKING WATER FOR 12 MO ADMINISTERED TO OFFSPRING OF CARCINOGEN-TREATED MOTHERS (STUDY DURATION: 12 MO), Species: RAT, Strain/Sex: ALBINO/MALE, FEMALE, Target Tissue: Type of Lesion: KIDNEY: TUMOR, Dose [Carcinogen]: 75 MG/KG BW ADMINISTERED INTRAPERITONEALLY TO MOTHERS 21 D POST CONCEPTION, Promoter: NONE USED
  tumour outcome (control, treated, inhibition, significance): 19/42 (45%), 8/25 (32%), 29%, not significant
